Laboratory results: publication PMC2233835 (The Journal of General Physiology, 2001)

Columns and labels:
[1] = biological target: T1, X-β homomeric channels (Bos taurus, UniProt Q00194, A200G/A344S/A378F/A555S/A582V/A612E/C169F/D157S/D193E/D502E/D538A/D577E/D588Q/D604M/DEL101-144/DEL91-95/E147F/E148K/E189Q/E196F/E230D/E231L/F201L/F214C/F374V/F533Y/G160D/G591A/G605N/I156V/I181L/I182V/I235R/I504V/I530V/I566L/I609V/I611A/INS98[…]/K146T/K150R/K151W/K237N/K239I/K346C/K506R/K518R/K521Q/K554M/K590Q/K598R/L195F/L199V/L210I/L351F/L548I/L593M/L606K/M175L/M213T/M580R/M592V/M602L/N161D/N165Y/N613A/P158Q/P173A/Q599E/Q97T/R232A/R345F/R369K/S192D/S205C/S240R/S350C/S371E/S537G/S540L/S553N/T162I/T171A/T179I/T217L/T364M/T584S/V153G/V154F/V174S/V208I/V215I/V487E/V497T/V534A/Y194N/Y197L); test: Macroscopic current dose–response in inside-out patches from Xenopus oocytes; format: cell-based, chimera of bovine CNG1, catfish CNG2 and rat CNG5; conditions: for Hill coefficient h: −100 mV
T1 sequence (Q00194 with tags, fused parts or gaps DEL91-95/Q97T/INS98[…]/DEL101-144/K146T/E147F/E148K/K150R/K151W/V153G/V154F/I156V/D157S/P158Q/G160D/N161D/T162I/N165Y/C169F/T171A/P173A/V174S/M175L/T179I/I181L/I182V/E189Q/S192D/D193E/Y194N/L195F/E196F/Y197L/L199V/A200G/F201L/S205C/V208I/L210I/M213T/F214C/V215I/T217L/E230D/E231L/R232A/I235R/K237N/K239I/S240R/A344S/R345F/K346C/S350C/L351F/T364M/R369K/S371E/F374V/A378F/V487E/V497T/D502E/I504V/K506R/K518R/K521Q/I530V/F533Y/V534A/S537G/D538A/S540L/L548I/S553N/K554M/A555S/I566L/D577E/M580R/A582V/T584S/D588Q/K590Q/G591A/M592V/L593M/K598R/Q599E/M602L/D604M/G605N/L606K/I609V/I611A/A612E/N613A): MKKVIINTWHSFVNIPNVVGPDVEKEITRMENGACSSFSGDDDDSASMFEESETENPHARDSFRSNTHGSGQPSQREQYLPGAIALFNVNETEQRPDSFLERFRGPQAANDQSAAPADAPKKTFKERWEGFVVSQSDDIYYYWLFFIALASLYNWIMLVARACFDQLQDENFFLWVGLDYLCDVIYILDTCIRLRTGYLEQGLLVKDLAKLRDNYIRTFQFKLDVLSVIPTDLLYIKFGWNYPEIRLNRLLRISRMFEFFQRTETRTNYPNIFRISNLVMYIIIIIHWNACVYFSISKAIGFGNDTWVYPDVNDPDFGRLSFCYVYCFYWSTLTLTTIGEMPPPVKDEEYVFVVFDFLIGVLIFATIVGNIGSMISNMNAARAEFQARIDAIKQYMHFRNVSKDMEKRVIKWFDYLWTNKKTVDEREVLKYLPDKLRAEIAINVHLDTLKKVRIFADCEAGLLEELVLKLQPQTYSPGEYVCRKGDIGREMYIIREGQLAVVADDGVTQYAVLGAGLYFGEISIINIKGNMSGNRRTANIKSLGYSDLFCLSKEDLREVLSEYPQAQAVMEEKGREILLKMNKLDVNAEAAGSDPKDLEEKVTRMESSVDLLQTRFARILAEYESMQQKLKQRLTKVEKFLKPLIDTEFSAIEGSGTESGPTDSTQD

[2] = tested on: ROON-S2; conditions: mean ± SD, ref Tibbs et al. 1997, Tibbs et al. 1998; cited from earlier work
[3] = biological target: T2, X-βR/αC (Bos taurus, UniProt Q00194, A200G/A344S/A378F/A555S/A582V/A614G/C169F/D157S/D193E/D502E/D538A/D577E/D604Q/DEL101-144/DEL91-95/E147F/E148K/E189Q/E196F/E230D/E231L/F201L/F214C/F374V/F533Y/G160D/G591K/I156V/I181L/I182V/I235R/I504V/I530V/I566L/I609E/I611V/INS98[…]/K146T/K150R/K151W/K237N/K239I/K346C/K506R/K518R/K521Q/K554M/K590Q/K596R/K598R/L195F/L199V/L210I/L351F/L548I/M175L/M213T/M580R/M592V/M602R/N161D/N165Y/N610S/N613A/P158Q/P173A/Q599E/Q97T/R232A/R345F/R369K/S192D/S205C/S240R/S350C/S371E/S537G/S540L/S553N/T162I/T171A/T179I/T217L/T364M/T584S/V153G/V154F/V174S/V208I/V215I/V487E/V497T/V534A/Y194N/Y197L); test: Macroscopic current dose–response in inside-out patches from Xenopus oocytes; format: cell-based, chimera of bovine CNG1, catfish CNG2 and rat CNG5
T2 sequence (Q00194 with tags, fused parts or gaps DEL91-95/Q97T/INS98[…]/DEL101-144/K146T/E147F/E148K/K150R/K151W/V153G/V154F/I156V/D157S/P158Q/G160D/N161D/T162I/N165Y/C169F/T171A/P173A/V174S/M175L/T179I/I181L/I182V/E189Q/S192D/D193E/Y194N/L195F/E196F/Y197L/L199V/A200G/F201L/S205C/V208I/L210I/M213T/F214C/V215I/T217L/E230D/E231L/R232A/I235R/K237N/K239I/S240R/A344S/R345F/K346C/S350C/L351F/T364M/R369K/S371E/F374V/A378F/V487E/V497T/D502E/I504V/K506R/K518R/K521Q/I530V/F533Y/V534A/S537G/D538A/S540L/L548I/S553N/K554M/A555S/I566L/D577E/M580R/A582V/T584S/K590Q/G591K/M592V/K596R/K598R/Q599E/M602R/D604Q/I609E/N610S/I611V/N613A/A614G): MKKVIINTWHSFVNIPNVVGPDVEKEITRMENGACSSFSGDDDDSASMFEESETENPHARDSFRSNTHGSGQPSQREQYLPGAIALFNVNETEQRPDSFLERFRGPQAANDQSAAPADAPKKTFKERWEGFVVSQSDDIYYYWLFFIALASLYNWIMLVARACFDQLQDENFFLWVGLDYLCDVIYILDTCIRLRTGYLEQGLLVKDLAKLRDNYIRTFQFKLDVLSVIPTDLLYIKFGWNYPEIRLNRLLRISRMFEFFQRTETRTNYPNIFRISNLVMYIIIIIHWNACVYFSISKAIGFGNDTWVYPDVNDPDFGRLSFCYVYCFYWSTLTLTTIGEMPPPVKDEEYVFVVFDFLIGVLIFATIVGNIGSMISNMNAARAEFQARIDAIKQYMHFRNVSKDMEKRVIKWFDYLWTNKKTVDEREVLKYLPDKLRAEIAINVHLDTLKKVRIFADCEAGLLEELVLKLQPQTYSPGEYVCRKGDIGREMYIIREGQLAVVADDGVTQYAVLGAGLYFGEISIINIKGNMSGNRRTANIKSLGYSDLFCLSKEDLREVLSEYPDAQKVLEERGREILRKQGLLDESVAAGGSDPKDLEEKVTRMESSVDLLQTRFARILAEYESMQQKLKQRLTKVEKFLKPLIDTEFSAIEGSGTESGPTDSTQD

agonist character ([1]; macroscopic currents): full agonists
Hill coefficient h ([1]; one patch (Fig. 1C), Hill fit ± SE): 1.94 ± 0.13
Hill coefficient h ([1]; mean ± SD of individual patches): 2.07 ± 0.27 (9)
Hill coefficient h ([3]; one patch (Fig. 6 B2), −100 mV, Hill fit ± SE): 1.95 ± 0.22
SMILES: Nc1nc2c(ncn2[C@@H]2O[C@@H]3COP(=O)([O-])O[C@H]3[C@H]2O)c(=O)[nH]1.[Na+] [cGMP]
Desensitization ([1]; agonist up to 30 mM): no evidence for this desensitization and No
Hill coefficient h [2]: 1.89 ± 0.38 (10)
Desensitization [3]: No
